Assay results as given in patent publication US20140363818A1, “EGFR and PAR2 Regulation of Intestinal Permeability” (UNIVERSITY OF MARYLAND, BALTIMORE, priority 2009, published 2014).
Entries after “also recorded” stand apart in the source; their conditions may differ.

Columns and labels:
[1] = system: C57BL/6 WT murine small intestine segments; assay: Ex vivo intestinal permeability (TEER) in the microsnapwell system; type: cell-based, mouse; details: for TEER change / intestinal permeability, dose-response experiment: C57BL/6 WT segments, zonulin 5-50 μg/well, trypsin-cleaved pre-HP2 50 μg/well
Protocol: The effect of zonulin/pre-HP2 on ex vivo intestinal permeability was monitored in the microsnapwell system as described (3). Briefly, segments of small intestine from C57BL/6 WT mice were mounted onto the microsnapwell system, and their luminal side was exposed for 30 min to medium alone or to the medium containing increasing concentrations of the purified recombinant zonulin. TEER was measured at time 0 and at 30-min time intervals for a period of 2 h using a planar electrode (Endohm SNAP electrode attached to an Evom-G WPI analyzer; World Precision Instruments) and expressed in Ω/cm^2 after normalization. […] In another set of experiments, zonulin was tested both in C57BL/6 WT and PAR2−/− mice. […]
Recombinant pre-HP2 (from now on defined as zonulin) was applied to WT C57BL/6 murine small intestine segments mounted in microsnapwells.

PAR2 = target: T1, PAR2 (Mus musculus, UniProt P55086); details: demonstrated in WT, but not PAR2−/− mice; cited from earlier work
T1 sequence (P55086 26-399): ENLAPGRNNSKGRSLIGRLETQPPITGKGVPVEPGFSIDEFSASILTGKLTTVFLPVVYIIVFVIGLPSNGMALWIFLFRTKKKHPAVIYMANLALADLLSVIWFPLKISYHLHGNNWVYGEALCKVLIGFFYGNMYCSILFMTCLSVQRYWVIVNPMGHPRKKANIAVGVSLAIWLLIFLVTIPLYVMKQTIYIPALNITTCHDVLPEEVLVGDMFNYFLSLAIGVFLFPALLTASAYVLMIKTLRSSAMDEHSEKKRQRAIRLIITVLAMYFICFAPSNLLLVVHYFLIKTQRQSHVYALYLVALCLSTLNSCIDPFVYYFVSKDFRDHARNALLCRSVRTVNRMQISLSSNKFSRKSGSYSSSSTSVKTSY

129/SvEv WT mice = assay: In vivo gastrointestinal permeability with sugar probes (lactulose/mannitol, sucrose); parameters: species or system mouse; details: for small intestinal permeability (lacman ratio) vs BSA-treated controls / gastroduodenal permeability (sucrose fractional excretion) vs BSA-treated controls: 170 mg/mouse [sic], gavage, challenge day vs 3 days before; for small intestinal permeability (lacman ratio) vs BSA-treated controls: FIG. 4A; for gastroduodenal permeability (sucrose fractional excretion) vs BSA-treated controls: FIG. 4B
Protocol: They were acclimatized to the experimental techniques for 3 wk, by fasting the animals for 3 h, gavaging the animals with a sugar probe, and placing them in metabolic cages twice each wk. On the day of protein challenge, the animals received either 170 micrograms of the purified single-chain zonulin in a 60 microliter solution or a similar amount of purified 2-chain cleaved HP2, together with the sugar gavage as described (4). […] Two days after the drug challenge day, mice were again placed in metabolic cages to measure their recovery from the treatment.
To establish whether zonulin might alter intestinal permeability in vivo, mice were gavaged with the single chain recombinant pre-HP2 protein (170 mg/mouse), and gastroduodenal and small intestinal permeability tested using specific sugar probes (sucrose and lactulose/mannitol, respectively) as described (14).

EGFR = target: T2, EGFR (Homo sapiens, UniProt P00533); assay: EGFR phosphorylation in serum-starved Caco-2 cells (immunoprecipitation / Western blot); type: cell-based; details: for EGFR phosphorylation compared with single chain zonulin: two-chain mature HP2 10 ml/ml as printed, Caco-2, FIG. 5D
T2 construct: serum-starved, high EGFR-expressing Caco-2 cells; endogenous in cells; host or cells: Caco-2
Protocol: PAR2 expression in Caco-2 cells was silenced using 2 different PAR2 siRNAs [HSS103471 and HSS103473 (50 nM each); Invitrogen].
The effect of zonulin on ex vivo and in vivo intestinal permeability was performed as described (8, 14) and reported above. To determine whether zonulin can activate EGFR, increasing concentrations of either zonulin or two-chain mature HP2 were added for increasing exposure times to serum-starved, high EGFR-expressing Caco-2 cells. The cells were lysed and processed for WB with anti-phospho EGFR (Y1068) Ab (Cell Signaling Technol. Inc.) as reported (40).
To determine whether zonulin can activate EGFR, increasing concentrations of baculovirus-derived, recombinant zonulin were added to Caco-2 intestinal epithelial cells. The cells were lysed, immunoprecipitated with anti-EGFR Ab, and processed for phosphotyrosine immunoblotting (PY-Plus).

COc1cc2ncnc(Nc3cccc(Cl)c3)c2cc1OC [AG1478, reference compound]
effect on zonulin-induced drop in TEER ([1]; 5 μM AG1478 with zonulin 10 μg/well, C57BL/6 WT, 90 min, FIG. 5C): abolished TEER reduction; also recorded: prevented

FCIGRL [AT1002]
changes in TEER (PAR2): PAR2-dependent changes in TEER

zonulin: Recombinant human haptoglobin-2 precursor (pre-HP2), uncleaved single chain, expressed in a baculovirus system
small intestinal permeability (lacman ratio) vs BSA-treated controls (129/SvEv WT mice): increases
small intestinal permeability (lacman ratio) vs BSA-treated controls (129/SvEv WT mice; listed as Zonulin/preHP2): increased
gastroduodenal permeability (sucrose fractional excretion) vs BSA-treated controls (129/SvEv WT mice): increases
gastroduodenal permeability (sucrose fractional excretion) vs BSA-treated controls (129/SvEv WT mice; listed as Zonulin/preHP2): increased
time for small intestinal permeability to return to pre-challenge values (129/SvEv WT mice; after zonulin challenge, FIG. 4C): ≤ 48 h
time for gastroduodenal permeability to return to pre-challenge values (129/SvEv WT mice; after zonulin challenge, FIG. 4D): ≤ 48 h
concentration at which tyrosine phosphorylation of EGFR increased (EGFR; Caco-2 cells, anti-EGFR IP, PY-Plus blot, FIG. 5A): ≥ 3 mg/mL
concentration at which the dose-dependent increase in EGFR phosphorylation reached a plateau (EGFR; serum-starved Caco-2 cells, FIG. 5A): 3 ml/ml
EGFR phosphorylation vs media (EGFR; zonulin 10 ml/well as printed, alone, serum-starved Caco-2, FIG. 5B): increase in EGFR phosphorylation
TEER change / intestinal permeability, dose-response experiment ([1]; FIG. 3): increased intestinal permeability in C57BL/6 WT mice in a dose-and time-dependent manner
TEER change in wild-type intestinal segments ([1]; C57BL/6 WT, 10 μg/well, baseline vs 90 min, FIG. 5C, 6B): decreased TEER; also recorded: significant drop in TEER
TEER change in PAR2−/− intestinal segments ([1]; PAR2−/− mice, 10 mg zonulin as printed, time 0 vs 90 min, FIG. 6B): failed to reduce TEER; also recorded: did not increase intestinal permeability
concentration at which TEER decreased (increased permeability) ([1]; added to mucosal (luminal) aspect of WT C57BL/6 small intestine segments, FIG. 3): ≥ 40 µg/mL
concentration inducing significant drop in TEER ([1]; luminal side, C57BL/6 WT, starting at 60 min post-exposure, tested 5, 10, 25, 50 μg/well, FIG. 3): 10 μg/well

B1: two-chain HP2: Cleaved two-chain mature HP2 (α2 and β chains) obtained by trypsin digestion of single chain zonulin (protein)
chain 1: VDSGNDVTDIADDGCPKPPEIAHGYVEHSVRYQCKNYYKLRTEGDGVYTLNDKKQWINKAVGDKLPECEADDGCPKPPEIAHGYVEHSVRYQCKNYYKLRTEGDGVYTLNNEKQWINKAVGDKLPECEAVCGKPKNPANPVQR
chain 2: ILGGHLDAKGSFPWQAKMVSHHNLTTGATLINEQWLLTTAKNLFLNHSENATAKDIAPTLTLYVGKKQLVEIEKVVLHPNYSQVDIGLIKLKQKVSVNERVMPICLPSKDYAEVGRVGYVSGWGRNANFKFTDHLKYVMLPVADQDQCIRHYEGSTVPEKKTPKSPVGVQPILNEHTFCAGMSKYQEDTCYGDAGSAFAVHDLEEDTWYATGILSFDKSCAVAEYGVYVKVTSIQDWVQKTIAENHHHHHH
small intestinal permeability (lacman ratio) vs BSA-treated controls (129/SvEv WT mice): failed to alter; also recorded: no changes
gastroduodenal permeability (sucrose fractional excretion) vs BSA-treated controls (129/SvEv WT mice): failed to alter; also recorded: no changes
EGFR phosphorylation compared with single chain zonulin (EGFR): dramatically reduced
EGFR phosphorylation compared with single chain zonulin (EGFR; listed as two-chain mature HP2): significantly reduced
TEER change / intestinal permeability, dose-response experiment ([1]; FIG. 3): no consistent TEER changes
